Converted amounts (≈) assume the structure as drawn. Read-outs that look alike come from different tables or passages of the source.
What was measured:
[1] = system: Bacteroides fragilis sp. thetaiotaomicron 1438; assay: Susceptibility of anaerobic bacteria, agar dilution; type: cell-based; conditions: 24 h, read-out: 24 Hr. Minimum Inhibitory Concentration
[2] = system: Fusobacterium necrophorum 13859; assay: as above; type: cell-based; conditions: read-out: 24 Hr. Minimum Inhibitory Concentration
E. coli = assay: Oral activity against E. coli infection in chickens (Experiment 6); type: in vivo
Description: The evaluation of the effectiveness of selected nitroimidazoles for their oral activity against E. coli infection in chickens was accomplished as follows.
Broiler type, five-week-old chickens were wing-banded and individually weighed. Replicates of 8 chickens, each replicate having the same average chicken weight, were formed. Three replicates were run for each treatment. Treatment was initiated via the feed 24 hours prior to challenge. The E. coli challenge strain was No. 2- 1- 8. The challenge inoculum consisted of 0.5 ml. of 10^-^1 dilution of a 15-18 hour tryptose broth culture administered into the right thoracic air sac of each chicken. Eight to ten days following challenge, all surviving chickens were weighed and examined for lesions. Any chicken that died during the experiment was also examined for lesions such as air sac lesions, pericarditis lesions, and perihepatitis lesions, and a culture made. The pre-treatment average weight per bird was 790 g. The test compounds were the same as before, identified as 1, 6, and 7.

Pasteurella multocida [3] = assay: Oral activity against Pasteurella multocida-caused infection in chickens (Experiment 5A); type: in vivo; conditions: 100 g./ton in feed
Description: A. Selected examples of the novel compounds were evaluated for their oral activity against Pasteurella multocida-caused infection in chickens. Four to five-week-old chickens were divided into groups of eight, and the compounds administered thereto in the feed. Two replicates were run for each compound. Twenty-four hours after the chickens began receiving the compound in their feed, the treated groups, as well as the nontreated control groups, were challenged intravenously with a broth culture of P. multocida. […] The chicks were observed during seven days following the challenge and the mortality in the treated groups was compared to that of the control group. The heart and liver were removed from each chicken which died during the test and cultured to determine the presence of P. multocida. At the termination of the test, all surviving chickens were sacrificed, the heart and liver removed from each chicken and cultured to determine the presence of P. multocida.

[4] = system: Pasteurella multocida, bovine strain; assay: Oral activity against Pasteurella multocida, bovine strain, in mice (Experiment 3); type: in vivo, White Swiss mice; conditions: 100 g. per ton of feed; LD50 of control minus LD50 of treated group (log10 dilutions)
Description: White Swiss female mice weighing 15-20 g. each were used in the test. Seven groups of ten mice each were treated at a level of 100 g. of test compound per ton of feed. The animals received the medication in the feed for 2 days prior to challenge and for 7 days post challenge. Similar groups of mice on a ration without the antimicrobial agent were used as controls. Both the treated mice and the control groups of mice were challenged with log10 dilutions ranging from 10^-^2 through 10^-^8 of a 16 to 20-hour culture of Pasteurella multocida, bovine strain, at 0.1 ml. per mouse, administered subcutaneously. […] By subtracting the LD50 of each of the treated groups from that of the control group of mice, there was obtained a figure called the protective index.
In the chart, column 1 lists the test compound, identified in the same manner as set forth in Experiment 1; and column 2 lists the protective index.

[5] = system: Bacteroides fragilis sp. vulgatus 1563; assay: Susceptibility of anaerobic bacteria, agar dilution; type: cell-based; conditions: 24 h, read-out: 24 Hr. Minimum Inhibitory Concentration
Pasteurella multocida [6] = assay: Efficacy against Pasteurella multocida infections in mice when administered by injection (Experiment 1); type: in vivo, Swiss mice; conditions: ip; for responders at 2.5 mg/kg: 2.5 mg./kg. i.p.; for responders at 5 mg/kg: 5.0 mg./kg. i.p.; for responders at 7.5 mg/kg: 7.5 mg./kg. i.p.
Description: The efficacy of the novel compounds against Pasteurella multocida infections in mice when administered by injection was studied.
Female Swiss mice weighing from 15 to about 20 g. were used. The test compound, 5.0 mg., was weighed out and dissolved in 0.5 ml. of dimethyl sulfoxide, and this solution was added to 9.5 ml. of sodium carboxymethylcellulose suspension. Groups of five mice each were injected intraperitoneally with 0.1 ml. each of the above-prepared test composition. This preparation gave a test rate of 2.5 mg. per kilo of body weight of mouse. The compounds were tested at 2.5, 5.0, or 7.5 mg. per kilo of body weight of mouse, and the test preparations for rates of 5.0 and 7.5 mg./kg. were prepared in a similar manner. Immediately after receiving the test compound, the mice were challenged using log10 dilutions of 10^-^4, 10^-^5, 10^-^6, and 10^-^7 of a 16 to 20-hour tryptose broth culture of Pasteurella multocida at 0.1 ml. per mouse subcutaneously. Similar groups of nontreated control mice were also challenged, the challenge being administered subcutaneously. The groups of mice were observed daily for mortality and the total mortality in treated groups compared with that which occurred in the nonmedicated control groups. Each test compound is identified by the number of the example describing its preparation.
In the chart, column 1 lists the test compound; column 2, the dosage of test compound in mg./kg. of mouse body weight; column 3, the dilution of the challenge organism; and column 4, the ratio of the number of mice surviving the test at each dosage and challenge dilution to the number of mice tested at each dosage and challenge dilution, called the survival ratio.

[7] = system: Propionibacterium acnes 44; assay: Susceptibility of anaerobic bacteria, agar dilution; type: cell-based; conditions: Cutibacterium acnes, 24 h; Propionibacterium acnes 44; read-out: 24 Hr. Minimum Inhibitory Concentration
[8] = Fusobacterium necrophorum, 13859, 24 h
[9] = challenge dilution 10^-^4, read-out: Survival Ratio (converted)
[10] = challenge dilution 10^-^5, read-out: Survival Ratio (converted)
[11] = challenge dilution 10^-^6, read-out: Survival Ratio (converted)
[12] = challenge dilution 10^-^7, read-out: Survival Ratio (converted)
[13] = challenge dilution 10^-^4, read-out: Survival Ratio
[14] = challenge dilution 10^-^5, read-out: Survival Ratio
[15] = challenge dilution 10^-^6, read-out: Survival Ratio
[16] = Bacteroides fragilis sp. thetaiotaomicron 1438
[17] = 24 h, Fusobacterium necrophorum 13859
[18] = Bacteroides fragilis sp. vulgatus 1563

SMILES	MIC ([1]; Bacteroides fragilis)	MIC [2, 8]	Avg. Wt./Chicken (E. coli; 100 g./ton in feed)	No. chickens with lesions/No. in group (E. coli; 100 g./ton in feed)	Survival Ratio (E. coli; 100 g./ton in feed)	Avg. Wt./Chicken (E. coli; 200 g./ton in feed)	No. chickens with lesions/No. in group (E. coli; 200 g./ton in feed)	Survival Ratio (E. coli; 200 g./ton in feed)	Avg. Wt./Chicken (E. coli; 300 g./ton in feed)	MIC ([5]; Bacteroides fragilis)	responders at 2.5 mg/kg (Pasteurella multocida [6]; [9])	responders at 2.5 mg/kg (Pasteurella multocida [6]; [10])	responders at 2.5 mg/kg (Pasteurella multocida [6]; [11])	responders at 5 mg/kg (Pasteurella multocida [6]; [9])	responders at 5 mg/kg (Pasteurella multocida [6]; [10])	responders at 5 mg/kg (Pasteurella multocida [6]; [11])	responders at 7.5 mg/kg (Pasteurella multocida [6]; [13])	responders at 7.5 mg/kg (Pasteurella multocida [6]; [14])	responders at 7.5 mg/kg (Pasteurella multocida [6]; [15])	MIC [7]	further results
Cn1nc(-c2ncc([N+](=O)[O-])n2C)c(C#N)c1N [Compound 1, 5-Amino-1-methyl-3-(1-methyl-5-nitro-2-imidazolyl)pyrazole-4-carbonitrile]	< 0.125 µg/mL	< 0.125 µg/mL	1058 g	16/24	24/24	1104 g	8/24	24/24	1014 g	< 0.125 µg/mL	10%	40%	80%	30%	90%	90%	70%	90%	100%	> 32 µg/mL	No. chickens with lesions/No. in group (E. coli; 300 g./ton in feed): 1/24; Survival Ratio (E. coli; 300 g./ton in feed): 24/24; Culture Isolation P. multocida (Pasteurella multocida [3]; replicate 1): 0/ 8; Survival Ratio (Pasteurella multocida [3]; replicate 1): 8/ 8; Culture Isolation P. multocida (Pasteurella multocida [3]; replicate 2): 1/ 8; Survival Ratio (Pasteurella multocida [3]; replicate 2): 8/ 8; Culture Isolation P. multocida (Pasteurella multocida [3]; total): 1/16; Survival Ratio (Pasteurella multocida [3]; total): 16/16; Protective Index [4]: > 5.6; responders at 2.5 mg/kg (Pasteurella multocida [6]; [12]): 95%; responders at 5 mg/kg (Pasteurella multocida [6]; [12]): 100%
Cn1nc(-c2ncc([N+](=O)[O-])n2C)c(C(N)=O)c1N [Compound 2, 5-Amino-1-methyl-3-(1-methyl-5-nitro-2-imidazolyl)pyrazole-4-carboxamide]	< 0.125 µg/mL	< 0.125 µg/mL	–	–	–	–	–	–	–	< 0.125 µg/mL	50%	90%	100%	–	–	–	–	–	–	0.5 µg/mL (≈ 1.89 µM)	–
COC=Nc1c(C#N)c(-c2ncc([N+](=O)[O-])n2C)nn1C [Compound 6, Methyl N-[4-cyano-1-methyl-3-(1-methyl-5-nitro-2-imidazolyl)pyrazol-5-yl]formimidate]	< 0.125 µg/mL	< 0.125 µg/mL	1098 g	11/24	24/24	1059 g	1/24	24/24	1055 g	< 0.125 µg/mL	90%	50%	90%	80%	90%	100%	90%	90%	100%	> 32 µg/mL	No. chickens with lesions/No. in group (E. coli; 300 g./ton in feed): 6/24; Survival Ratio (E. coli; 300 g./ton in feed): 24/24; Culture Isolation P. multocida (Pasteurella multocida [3]; replicate 1): 0/ 8; Survival Ratio (Pasteurella multocida [3]; replicate 1): 8/ 8; Culture Isolation P. multocida (Pasteurella multocida [3]; replicate 2): 0/ 8; Survival Ratio (Pasteurella multocida [3]; replicate 2): 8/ 8; Culture Isolation P. multocida (Pasteurella multocida [3]; total): 0/16; Survival Ratio (Pasteurella multocida [3]; total): 16/16; Protective Index [4]: 4.3; responders at 2.5 mg/kg (Pasteurella multocida [6]; [12]): 100%
CCCCOC=Nc1c(C#N)c(-c2ncc([N+](=O)[O-])n2C)nn1C [Compound 7, Butyl N-[4-Cyano-1-methyl-3-(1-methyl-5-nitro-2-imidazolyl)-pyrazol-5-yl]formimidate]	< 0.125 µg/mL	< 0.125 µg/mL	1023 g	15/24	24/24	1033 g	23/24	24/24	1132 g	< 0.125 µg/mL	15%	35%	70%	30%	45%	75%	50%	70%	100%	> 32 µg/mL	No. chickens with lesions/No. in group (E. coli; 300 g./ton in feed): 6/24; Survival Ratio (E. coli; 300 g./ton in feed): 24/24; Culture Isolation P. multocida (Pasteurella multocida [3]; replicate 1): 2/ 8; Survival Ratio (Pasteurella multocida [3]; replicate 1): 6/ 8; Culture Isolation P. multocida (Pasteurella multocida [3]; replicate 2): 2/ 8; Survival Ratio (Pasteurella multocida [3]; replicate 2): 8/ 8; Culture Isolation P. multocida (Pasteurella multocida [3]; total): 4/16; Survival Ratio (Pasteurella multocida [3]; total): 14/16; Protective Index [4]: 3.4
CC(=O)Nc1c(C(=O)O)c(-c2ncc([N+](=O)[O-])n2C)nn1C [Compound 12, 5-acetamido-1-methyl-3-(1-methyl-5-nitro-2-imidazolyl)pyrazole-4-carboxylic acid]	–	–	–	–	–	–	–	–	–	–	–	–	–	0%	30%	70%	–	–	–	> 32 µg/mL	MIC [1, 16]: 2 µg/mL (≈ 6.49 µM); MIC [2, 17]: < 0.125 µg/mL; MIC [5, 18]: 1 µg/mL (≈ 3.24 µM)
C=CCOC=Nc1c(C#N)c(-c2ncc([N+](=O)[O-])n2C)nn1C [Compound 13A, Allyl N-[4-cyano-1-methyl-3-(1-methyl-5-nitro-2-imidazolyl)pyrazol-5-yl]formimidate]	–	–	–	–	–	–	–	–	–	–	–	–	–	60%	80%	100%	–	–	–	> 128 µg/mL	MIC [1, 16]: 0.25 µg/mL (≈ 0.793 µM); MIC [2, 17]: < 0.125 µg/mL; MIC [5, 18]: 0.25 µg/mL (≈ 0.793 µM)
CCCCC(CC)COC=Nc1c(C#N)c(-c2ncc([N+](=O)[O-])n2C)nn1C (stereo not shown) [Compound 13D, 2-Ethylhexyl N-[4-cyano-1-methyl-3-(1-methyl-5-nitro-2-imidazolyl)pyrazol-5-yl]formimidate]	–	–	–	–	–	–	–	–	–	–	30%	70%	90%	90%	100%	100%	100%	100%	100%	16 µg/mL (≈ 41.3 µM)	MIC [1, 16]: 1 µg/mL (≈ 2.58 µM); MIC [2, 17]: < 0.125 µg/mL; MIC [5, 18]: 0.5 µg/mL (≈ 1.29 µM)

Source: patent publication US3980794A, “Method for promoting growth of poultry with 3-(5-nitro-2-imidazolyl)pyrazoles” (Eli Lilly and Company, priority 1975, dated 1976)
